Settings: Liquid, Vibrating tube method

CCCCCCCCCC [decane]
Settings	mass density [kg/m3]
293.15 K, 34214 kPa	753.1
293.15 K, 34239 kPa	753.1
293.15 K, 34259 kPa	753.1
293.15 K, 34285 kPa	753.1
293.15 K, 34303 kPa	753.1
293.16 K, 19215 kPa	743.7
293.16 K, 19235 kPa	743.6
293.16 K, 19274 kPa	743.8
293.16 K, 19292 kPa	743.6
293.16 K, 19437 kPa	743.9
293.16 K, 33877 kPa	753
303.14 K, 364 kPa	722.4
303.14 K, 380 kPa	722.3
303.14 K, 402 kPa	722.5
303.14 K, 424 kPa	722.6
303.14 K, 441 kPa	722.6
303.14 K, 462 kPa	722.5
303.14 K, 488 kPa	722.6
303.14 K, 520 kPa	722.6
303.14 K, 547 kPa	722.7
303.14 K, 571 kPa	722.7
303.14 K, 602 kPa	722.8
303.14 K, 632 kPa	722.7
303.14 K, 677 kPa	722.6
303.14 K, 720 kPa	722.8
303.14 K, 760 kPa	722.8
303.14 K, 810 kPa	722.9
303.14 K, 862 kPa	723
303.14 K, 904 kPa	723
303.14 K, 946 kPa	723
303.14 K, 997 kPa	723
303.14 K, 1037 kPa	723
303.14 K, 1220 kPa	723.2
303.14 K, 1295 kPa	723.2
303.14 K, 1434 kPa	723.4
303.14 K, 1467 kPa	723.4
303.14 K, 1497 kPa	723.4
303.14 K, 1538 kPa	723.5
303.14 K, 1586 kPa	723.5
303.14 K, 1619 kPa	723.4
303.14 K, 1670 kPa	723.5
303.14 K, 1705 kPa	723.5
303.14 K, 1760 kPa	723.6
303.14 K, 1816 kPa	723.7
303.14 K, 1856 kPa	723.7
303.14 K, 1904 kPa	723.8
303.14 K, 1955 kPa	723.9
303.14 K, 1986 kPa	724
303.14 K, 2021 kPa	723.9
303.14 K, 2067 kPa	723.9
303.14 K, 2099 kPa	723.9
303.14 K, 2132 kPa	723.9
303.14 K, 2177 kPa	724
303.14 K, 2229 kPa	724
303.14 K, 2270 kPa	723.9
303.14 K, 2320 kPa	724.1
303.14 K, 2376 kPa	724.2
303.14 K, 2415 kPa	724.1
303.14 K, 2455 kPa	724.1
303.14 K, 2518 kPa	724.3
303.14 K, 2560 kPa	724.3
303.14 K, 2611 kPa	724.3
303.14 K, 2680 kPa	724.4
303.14 K, 2736 kPa	724.4
303.14 K, 2782 kPa	724.5
303.14 K, 2818 kPa	724.6
303.14 K, 2834 kPa	724.6
303.14 K, 3457 kPa	725
303.14 K, 3518 kPa	725.1
303.15 K, 1065 kPa	723
303.15 K, 1099 kPa	723.2
303.15 K, 1144 kPa	723.2
303.15 K, 1175 kPa	723.2
303.15 K, 1261 kPa	723.3
303.15 K, 1325 kPa	723.2
303.15 K, 1363 kPa	723.2
303.15 K, 1385 kPa	723.3
303.15 K, 2849 kPa	724.6
303.15 K, 2899 kPa	724.6
303.15 K, 2942 kPa	724.7
303.15 K, 2968 kPa	724.7
303.15 K, 3005 kPa	724.8
303.15 K, 3039 kPa	724.6
303.15 K, 3070 kPa	724.7
303.15 K, 3105 kPa	724.8
303.15 K, 3140 kPa	724.8
303.15 K, 3167 kPa	724.9
303.15 K, 3207 kPa	724.8
303.15 K, 3250 kPa	724.9
303.15 K, 3283 kPa	725
303.15 K, 3333 kPa	724.9
303.15 K, 3363 kPa	725
303.15 K, 3400 kPa	725
303.15 K, 3487 kPa	725.1
303.15 K, 3503 kPa	724.9
303.15 K, 3530 kPa	725.1
303.15 K, 3542 kPa	725
303.15 K, 3556 kPa	725.2
303.15 K, 3568 kPa	725.1
303.15 K, 3587 kPa	725.2
303.15 K, 3606 kPa	725.2
303.15 K, 3618 kPa	725.1
303.15 K, 3637 kPa	725.3
303.15 K, 3655 kPa	725.2
303.15 K, 3668 kPa	725.4
303.15 K, 3688 kPa	725.3
303.15 K, 3707 kPa	725.2
303.15 K, 3720 kPa	725.3
303.15 K, 3735 kPa	725.3
303.15 K, 3753 kPa	725.3
303.15 K, 3770 kPa	725.3
303.15 K, 3790 kPa	725.3
303.15 K, 3808 kPa	725.3
303.15 K, 3820 kPa	725.3
303.15 K, 3840 kPa	725.4
303.15 K, 3855 kPa	725.4
303.15 K, 3871 kPa	725.3
303.15 K, 3885 kPa	725.3
303.15 K, 3902 kPa	725.5
303.15 K, 3916 kPa	725.5
303.15 K, 3938 kPa	725.5
303.15 K, 3958 kPa	725.4
303.15 K, 3974 kPa	725.4
303.15 K, 3988 kPa	725.4
303.15 K, 4013 kPa	725.5
303.15 K, 4029 kPa	725.5
303.15 K, 4042 kPa	725.6
303.15 K, 4059 kPa	725.5
303.15 K, 4074 kPa	725.5
303.15 K, 4089 kPa	725.6
303.15 K, 4104 kPa	725.6
303.15 K, 4122 kPa	725.6
303.15 K, 4137 kPa	725.5
303.15 K, 4153 kPa	725.7
303.15 K, 4172 kPa	725.7
303.15 K, 4188 kPa	725.7
303.15 K, 24341 kPa	740.5
303.15 K, 24369 kPa	740.3
303.15 K, 24389 kPa	740.3
303.15 K, 24417 kPa	740.4
303.15 K, 24444 kPa	740.4
303.15 K, 24484 kPa	740.5
303.15 K, 24509 kPa	740.4
303.15 K, 24577 kPa	740.5
303.15 K, 24654 kPa	740.6
303.15 K, 24804 kPa	740.6
303.15 K, 24833 kPa	740.7
303.15 K, 24870 kPa	740.7
303.15 K, 24908 kPa	740.7
303.15 K, 24929 kPa	740.7
303.15 K, 24962 kPa	740.7
303.15 K, 24995 kPa	740.8
303.15 K, 25025 kPa	740.7
303.15 K, 25050 kPa	740.7
303.15 K, 25648 kPa	741.1
303.15 K, 25678 kPa	741.3
303.15 K, 25713 kPa	741.2
303.15 K, 25744 kPa	741.3
303.15 K, 25771 kPa	741.3
303.15 K, 25839 kPa	741.3
303.15 K, 25875 kPa	741.2
303.15 K, 25902 kPa	741.4
303.15 K, 25935 kPa	741.4
303.15 K, 25959 kPa	741.5
303.15 K, 26009 kPa	741.4
303.15 K, 26041 kPa	741.5
303.15 K, 26073 kPa	741.5
303.15 K, 26100 kPa	741.5
303.15 K, 26137 kPa	741.5
303.15 K, 26164 kPa	741.5
303.15 K, 26206 kPa	741.5
303.15 K, 26242 kPa	741.5
303.15 K, 26270 kPa	741.6
303.15 K, 26309 kPa	741.6
303.15 K, 26334 kPa	741.6
303.15 K, 26357 kPa	741.7
303.15 K, 26400 kPa	741.7
303.15 K, 26433 kPa	741.8
303.15 K, 26465 kPa	741.7
303.15 K, 26494 kPa	741.7
303.15 K, 26532 kPa	741.8
303.15 K, 26574 kPa	741.8
303.15 K, 26607 kPa	741.9
303.15 K, 26640 kPa	741.8
303.15 K, 26684 kPa	741.9
303.15 K, 26718 kPa	741.8
303.15 K, 26752 kPa	741.9
303.15 K, 26781 kPa	741.9
303.15 K, 26820 kPa	741.9
303.15 K, 26844 kPa	741.9
303.15 K, 26884 kPa	741.9
303.15 K, 26923 kPa	742
303.15 K, 26947 kPa	742
303.15 K, 26982 kPa	742.1
303.15 K, 27007 kPa	742
303.15 K, 27037 kPa	742.2
303.15 K, 27071 kPa	742.1
303.15 K, 27116 kPa	742.2
303.15 K, 27156 kPa	742.2
303.15 K, 27186 kPa	742.1
303.15 K, 27226 kPa	742.2
303.15 K, 27262 kPa	742.2
303.15 K, 27298 kPa	742.3
303.15 K, 27333 kPa	742.3
303.15 K, 27375 kPa	742.4
303.15 K, 27400 kPa	742.4
303.15 K, 27431 kPa	742.3
303.15 K, 27462 kPa	742.4
303.15 K, 27503 kPa	742.3
303.15 K, 27535 kPa	742.4
303.15 K, 27585 kPa	742.4
303.15 K, 27622 kPa	742.4
303.15 K, 27666 kPa	742.4
303.15 K, 27697 kPa	742.5
303.15 K, 27724 kPa	742.6
303.15 K, 27748 kPa	742.5
303.15 K, 27771 kPa	742.6
303.15 K, 27803 kPa	742.5
303.15 K, 27827 kPa	742.7
303.15 K, 27859 kPa	742.6
303.15 K, 27890 kPa	742.6
303.15 K, 27923 kPa	742.8
303.15 K, 27952 kPa	742.6
303.15 K, 27975 kPa	742.7
303.15 K, 27999 kPa	742.8
303.15 K, 28032 kPa	742.7
303.15 K, 28057 kPa	742.8
303.15 K, 28085 kPa	742.7
303.15 K, 28118 kPa	742.9
303.15 K, 28151 kPa	742.8
303.15 K, 28180 kPa	742.9
303.15 K, 28205 kPa	742.8
303.15 K, 28234 kPa	742.9
303.15 K, 28258 kPa	742.9
303.15 K, 28289 kPa	742.9
303.15 K, 28314 kPa	742.9
303.15 K, 28343 kPa	743
303.15 K, 28369 kPa	743
303.15 K, 28399 kPa	743.1
303.15 K, 28443 kPa	743
303.15 K, 28470 kPa	743.1
303.15 K, 28511 kPa	743.2
303.15 K, 28542 kPa	743.1
303.15 K, 28562 kPa	743.1
303.15 K, 28584 kPa	743.2
303.15 K, 28605 kPa	743.1
303.15 K, 28622 kPa	743.2
303.15 K, 28643 kPa	743.1
303.15 K, 28666 kPa	743.1
303.15 K, 28685 kPa	743.3
303.15 K, 28705 kPa	743.2
303.15 K, 28725 kPa	743.2
303.15 K, 28754 kPa	743.3
303.15 K, 28771 kPa	743.3
303.15 K, 28791 kPa	743.3
303.15 K, 28809 kPa	743.2
303.15 K, 28826 kPa	743.2
303.15 K, 28844 kPa	743.4
303.15 K, 28865 kPa	743.2
303.15 K, 28885 kPa	743.3
303.15 K, 28902 kPa	743.2
303.15 K, 28928 kPa	743.4
303.15 K, 28945 kPa	743.3
303.15 K, 28966 kPa	743.4
303.15 K, 28986 kPa	743.4
303.15 K, 29000 kPa	743.5
303.15 K, 29018 kPa	743.4
303.15 K, 29042 kPa	743.4
303.15 K, 29062 kPa	743.4
303.15 K, 29083 kPa	743.4
303.15 K, 29107 kPa	743.4
303.15 K, 29131 kPa	743.5
303.15 K, 29154 kPa	743.4

— the NIST ThermoML archive (doi:10.1021/je800110r)
